Columns and labels:
Format in all cases: in vivo
[1] = tested on: Echinochloa crusgalli; assay: Greenhouse herbicidal activity and crop safety comparison (Test Example 2); details: Rate 150 g/ha; for inhibition at 150 g/ha: Echinochloa crus-galli, read-out: Echinochloa crusgalli, control efficacy grading (fresh weight inhibition rate)
Summary of the method: (§1)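 Fresh weight inhibition, banded into grades A to E (E <20%), was rated 14-21 days after foliar spraying of 3-6 leaf plants, or 14-30 days after a soil spray applied 24 h post-sowing.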

[2] = tested on: Leptochloa chinensis; assay: as above; details: Rate 150 g/ha; for inhibition at 150 g/ha: Dinebra chinensis, read-out: Leptochloa chinensis, control efficacy grading (fresh weight inhibition rate)
Summary of the method: as §1

[3] = tested on: Oryza sativa subsp. indica; assay: as above; details: Rate 150 g/ha
Summary of the method: as §1

[4] = tested on: Oryza sativa subsp. japonica; assay: as above; details: Rate 150 g/ha
Summary of the method: as §1

[5] = tested on: Echinochloa crusgalli; assay: Greenhouse herbicidal activity assay, post-emergence; details: Post-emergence test, rate 150 g a.i./hm^2, grade by fresh weight inhibition rate; for pest or weed control at 150 g/ha: Echinochloa crus-galli, read-out: Control efficacy grade, Echinochloa crusgalli
Summary of the method: (§2)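 Letter grades (A: ≥80% to 100%; C: ≥40% to <60%; E: <20%) express fresh weight inhibition recorded 14-21 days post-spray. Weeds were treated on the leaves once they reached 3-6 leaves in chamber-grown pots, allowed to dry naturally, then kept in the chamber.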

[6] = tested on: Eclipta prostrata; assay: as above; details: Post-emergence test, rate 150 g a.i./hm^2, grade by fresh weight inhibition rate; for pest or weed control at 150 g/ha: Eclipta prostrata, read-out: Control efficacy grade, Eclipta prostrata
Summary of the method: as §2

[7] = tested on: Cyperus iria; assay: as above; details: Post-emergence test, rate 150 g a.i./hm^2, grade by fresh weight inhibition rate; for pest or weed control at 150 g/ha: Cyperus iria, read-out: Control efficacy grade, Cyperus iria
Summary of the method: as §2

[8] = tested on: Leptochloa chinensis; assay: as above; details: Post-emergence test, rate 150 g a.i./hm^2, grade by fresh weight inhibition rate; for pest or weed control at 150 g/ha: Dinebra chinensis, read-out: Control efficacy grade, Leptochloa chinensis
Summary of the method: as §2

[9] = tested on: Digitaria sanguinalis; assay: as above; details: Post-emergence test, rate 150 g a.i./hm^2, grade by fresh weight inhibition rate; for pest or weed control at 150 g/ha: Digitaria sanguinalis, read-out: Control efficacy grade, Digitaria sanguinalis
Summary of the method: as §2

Row | SMILES | Echinochloa crusgalli, control efficacy grading (fresh weight inhibition rate) [1] | Leptochloa chinensis, control efficacy grading (fresh weight inhibition rate) [2] | Oryza sativa subsp. indica, grading of fresh weight inhibition rate (crop safety) [3] | Oryza sativa subsp. japonica, grading of fresh weight inhibition rate (crop safety) [4] | Control efficacy grade, Echinochloa crusgalli [5] | Control efficacy grade, Eclipta prostrata [6] | Control efficacy grade, Cyperus iria [7] | Control efficacy grade, Leptochloa chinensis [8] | Control efficacy grade, Digitaria sanguinalis [9] | inhibition at 150 g/ha [1] [%] | inhibition at 150 g/ha [2] [%] | pest or weed control at 150 g/ha [5] [%] | pest or weed control at 150 g/ha [6] [%] | pest or weed control at 150 g/ha [7] [%] | pest or weed control at 150 g/ha [8] [%] | pest or weed control at 150 g/ha [9] [%]
1 | CCCS(=O)(=O)c1c(S(C)(=O)=O)ccc(C(=O)Nc2nnc(CC)o2)c1Cl [Compound 3-387] | A (Fresh weight inhibition rate≥80% to 100%) | A (Fresh weight inhibition rate≥80% to 100%) | E (Fresh weight inhibition rate<20%) | E (Fresh weight inhibition rate<20%) | A (Fresh weight inhibition rate≥80% to 100%) | A (Fresh weight inhibition rate≥80% to 100%) | A (Fresh weight inhibition rate≥80% to 100%) | A (Fresh weight inhibition rate≥80% to 100%) | A (Fresh weight inhibition rate≥80% to 100%) | – | – | – | – | – | – | –
2 | CCc1nnc(NC(=O)c2ccc(S(C)(=O)=O)c(S(=O)(=O)CC3CC3)c2Cl)o1 [Compound 3-418] | A (Fresh weight inhibition rate≥80% to 100%) | A (Fresh weight inhibition rate≥80% to 100%) | E (Fresh weight inhibition rate<20%) | E (Fresh weight inhibition rate<20%) | A (Fresh weight inhibition rate≥80% to 100%) | A (Fresh weight inhibition rate≥80% to 100%) | A (Fresh weight inhibition rate≥80% to 100%) | A (Fresh weight inhibition rate≥80% to 100%) | A (Fresh weight inhibition rate≥80% to 100%) | – | – | – | – | – | – | –
3 | CS(=O)(=O)c1ccc(C(=O)Nc2nnco2)c(Cl)c1S(=O)(=O)C1CC1 [Compound 3-307] | A (Fresh weight inhibition rate≥80% to 100%) | A (Fresh weight inhibition rate≥80% to 100%) | E (Fresh weight inhibition rate<20%) | E (Fresh weight inhibition rate<20%) | A (Fresh weight inhibition rate≥80% to 100%) | A (Fresh weight inhibition rate≥80% to 100%) | A (Fresh weight inhibition rate≥80% to 100%) | A (Fresh weight inhibition rate≥80% to 100%) | A (Fresh weight inhibition rate≥80% to 100%) | – | – | – | – | – | – | –
4 | CCCS(=O)(=O)c1c(S(C)(=O)=O)ccc(C(=O)Nc2nnc(C(C)C)o2)c1Cl [Compound 3-503, 2-chloro-N-(5-isopropyl-1,3,4-oxadiazol-2-yl)-4-(methylsulfonyl)-3-(propylsulfonyl)benzamide] | – | – | E (Fresh weight inhibition rate<20%) | E (Fresh weight inhibition rate<20%) | – | – | – | – | – | 80 to 100 | 80 to 100 | 80 to 100 | 80 to 100 | 80 to 100 | 80 to 100 | 80 to 100
5 | CCCS(=O)(=O)c1c(S(C)(=O)=O)ccc(C(=O)Nc2nnc(C)o2)c1Cl [Compound 3-5] | A (Fresh weight inhibition rate≥80% to 100%) | A (Fresh weight inhibition rate≥80% to 100%) | E (Fresh weight inhibition rate<20%) | E (Fresh weight inhibition rate<20%) | A (Fresh weight inhibition rate≥80% to 100%) | A (Fresh weight inhibition rate≥80% to 100%) | A (Fresh weight inhibition rate≥80% to 100%) | A (Fresh weight inhibition rate≥80% to 100%) | A (Fresh weight inhibition rate≥80% to 100%) | – | – | – | – | – | – | –
6 | CS(=O)(=O)c1ccc(C(=O)Nc2nnc(C3CC3)o2)c(Cl)c1S(=O)(=O)C1CC1 [Compound 3-655] | A (Fresh weight inhibition rate≥80% to 100%) | A (Fresh weight inhibition rate≥80% to 100%) | E (Fresh weight inhibition rate<20%) | E (Fresh weight inhibition rate<20%) | A (Fresh weight inhibition rate≥80% to 100%) | A (Fresh weight inhibition rate≥80% to 100%) | A (Fresh weight inhibition rate≥80% to 100%) | A (Fresh weight inhibition rate≥80% to 100%) | A (Fresh weight inhibition rate≥80% to 100%) | – | – | – | – | – | – | –
7 | CCc1nnc(NC(=O)c2ccc(S(C)(=O)=O)c(S(=O)(=O)C(C)CC)c2Cl)o1 (racemic) [Compound 3-406] | A (Fresh weight inhibition rate≥80% to 100%) | A (Fresh weight inhibition rate≥80% to 100%) | E (Fresh weight inhibition rate<20%) | E (Fresh weight inhibition rate<20%) | A (Fresh weight inhibition rate≥80% to 100%) | A (Fresh weight inhibition rate≥80% to 100%) | A (Fresh weight inhibition rate≥80% to 100%) | A (Fresh weight inhibition rate≥80% to 100%) | A (Fresh weight inhibition rate≥80% to 100%) | – | – | – | – | – | – | –
8 | CC(C)S(=O)(=O)c1c(S(C)(=O)=O)ccc(C(=O)Nc2nnco2)c1Cl [Compound 3-276] | A (Fresh weight inhibition rate≥80% to 100%) | A (Fresh weight inhibition rate≥80% to 100%) | E (Fresh weight inhibition rate<20%) | E (Fresh weight inhibition rate<20%) | A (Fresh weight inhibition rate≥80% to 100%) | A (Fresh weight inhibition rate≥80% to 100%) | A (Fresh weight inhibition rate≥80% to 100%) | A (Fresh weight inhibition rate≥80% to 100%) | A (Fresh weight inhibition rate≥80% to 100%) | – | – | – | – | – | – | –
9 | CC(C)S(=O)(=O)c1c(S(C)(=O)=O)ccc(C(=O)Nc2nnc(C3CC3)o2)c1Cl [Compound 3-624, 2-chloro-N-(5-cyclopropyl-1,3,4-oxadiazol-2-yl)-3-(isopropylsulfonyl)-4-(methylsulfonyl)benzamide] | – | – | E (Fresh weight inhibition rate<20%) | E (Fresh weight inhibition rate<20%) | – | – | – | – | – | 80 to 100 | 80 to 100 | 80 to 100 | 80 to 100 | 80 to 100 | 80 to 100 | 80 to 100
10 | Cc1nnc(NC(=O)c2ccc(S(C)(=O)=O)c(S(=O)(=O)C3CCC3)c2Cl)o1 [Compound 3-86] | A (Fresh weight inhibition rate≥80% to 100%) | A (Fresh weight inhibition rate≥80% to 100%) | E (Fresh weight inhibition rate<20%) | E (Fresh weight inhibition rate<20%) | A (Fresh weight inhibition rate≥80% to 100%) | A (Fresh weight inhibition rate≥80% to 100%) | A (Fresh weight inhibition rate≥80% to 100%) | A (Fresh weight inhibition rate≥80% to 100%) | A (Fresh weight inhibition rate≥80% to 100%) | – | – | – | – | – | – | –

From patent US20250223268A1, “4-Methylsulfonylbenzamide Compound, Preparation Method, Herbicidal Composition And Use” (Jiangsu Flag Chemical Industry Co., Ltd., priority 2022, published 2025)
